Reference: publication PMC10384246, “Discovery of New Uracil and Thiouracil Derivatives as Potential HDAC Inhibitors” (Pharmaceuticals, 2023)
Values joined by “and” are separate entries in the source; they are usually repeats but may differ in a detail not shown here. Identical values can stand only once.

What was measured:
HDAC4 = HDAC4 (Homo sapiens, UniProt P56524); assay: In vitro HDAC4 inhibitory assay; assay type: biochemical
HCT-116 cells [1] = assay: Annexin-V/propidium iodide apoptosis assay; assay type: cell-based, human; settings: 78 µM, 72 h
Method: The tested cells were subjected to 78 µM from compound 5m with an incubation time of 72 h.
The apoptotic effect of the compound 5m was tested as described in Supplementary data. Quantitative Real-Time Reverse-Transcriptase PCR (qRT-PCR) technique Using qRT-PCR, the effect of compound 5m on the expression of cleaved caspase-3 and caspase-8 was determined (Supplementary Materials). […]
(§1) S2.3. Annexin V - FITC apoptosis assay.
(§2) To detect the apoptosis induced by compound 5m , HCT-116 cells were seeded and incubated overnight and then treated with compound 5m at concentrations of 78 µM for 72 h. DMSO was chosen as the negative control. After that, the cells were collected and washed with PBS two successive times with centrifugation. Apoptosis detection kit (BD Biosciences, San Jose, CA) was used in this test. According to the manufacturer's protocol the cells were stained by Annexin V-FITC and propidium iodide (PI) in the binding b uffer for 20min at room temperature in the dark. Using a flow cytometer, Annexin V-FITC and PI binding were analyzed. Flowjo software was used to analyze the frequencies in all quadrants.
(§3) S2.4. Apoptotic effect of compound 5m treatment. […]
(§4) cells treated with compound 5m. […]

caspase-8 = assay: qRT-PCR caspase-8 level; assay type: cell-based, human; settings: HCT-116 cells, 72 h, versus untreated cells
Method: (§14) Quantitative Real Time Reverse-Transcriptase PCR technique (determination of caspase-3
(§15) The total RNA was extracted from the control and treated cells by using RNeasy mini kit
(§16) (Qiagen, Germany) according the manufacturer's protocol. Then, the isolated RNAs were
(§17) quantitatively and qualitatively assessed using a NanoDrop®1000 spectrophotometer (Thermo
(§18) Scientific, Wilmington, DE, USA). The RNA aliquots were preserved at - 80 °C till the next
(§19) Reverse transcription and quantification of caspase-3 and caspase-8 mRNA
expressions using qRT-PCR:
(§20) iScriptTM One-Step RT-PCR Kit with SYBR® Green kit (BIORAD Laboratories, USA) was used
(§21) for reverse transcription of total RNA and quantification of the targeted mRNA expressions in
(§22) single reaction tube. In depth, the complementary DNA (cDNA) was performed efficiently from
(§23) the isolated RNA using iScriptTM MMLV (Moloney Murine Leukemia Virus) reverse
(§24) transcriptase. While, the relative expression levels of caspase -3 and caspase-8 mRNA were
(§25) determined using 2X SYBR® Green RT -PCR Reaction Mix, containing iTaq TM DNA polymerase
(§26) and SYBR® Green I dye, on the basis of the manufacturer’s guidelines. GAPDH was used as
(§27) housekeeping gene for data normalization. The reaction Mix consisted of 10 μL of 2X SYBR®
(§28) Green RT-PCR Reaction Mix, 1 μl of forward primer, 1 μl of reverse primer, 1 μl of iScript […]
(§29) were determined by using the 2- ΔΔct method.

HCT-116 cells [2] = assay: Flow cytometry cell cycle analysis; assay type: cell-based, human; settings: 78 µM, 72 h, share of cells in phase
Method: The effect of the most promising compound, 5m, against the cell cycle was tested in HCT116 cells.
Cell cycle analysis was performed for compound 5m as described in Supplementary Materials. […]
defined as the concentration at which 50% of the cells could survive. The results were expressed […]
S2.2. In-vitro DNA-Flow cytometric (cell cycle) analysis. […]
h. Then, the tested cells were collected by trypsinization and washed in PBS. Ice - cold absolute ethanol was used for fixation of the collected cells. The cells were stained with Cycle TESTTM PLUS DNA Reagent Kit (BD Biosciences, San Jose, CA) accord ing to the manufacturer's instructions. Cell -cycle distribution was evaluated using a flow cytometer.
as §1, §2, §3, §4

[3] = system: colorectal carcinoma (HCT-116); assay: MTT anti-proliferative assay, HCT-116; assay type: cell-based; settings: Homo sapiens, HCT-116, read-out: Cytotoxicity IC50 HCT-116
Method: (§5) Sorafenib was used as a reference drug.
(§6) Anti-proliferative activity activities were tested using MTT assay as described in Supplementary Materials. […]
(§7) S2.1. In vitro anti-proliferative activities
(§8) The in vitro antiproliferative activities of all the synthesized compounds against three human tumor cell lines namely, MCF-7 (human breast cancer cell line), HepG2 (human liver […]
(§9) in the literature, using MTT assay protocol. Sorafenib was used in this test as a positive control.
(§10) The anti-proliferative activity was assessed quantitatively as follows.
(§11) Human cancer cell lines were seeded in 96-well plates at a density of 3-8 × 10^3 cells/well.
(§12) Next, the cells were incubated for 12 h in a 5% CO2 incubator at 37 °C. Then, for each well, the growth medium was exchanged with 0.1 ml of fresh medium containing graded concentrations of the test compounds or equal DMSO. Then 10 μl MTT solution ([…]) was added to each well, and the cells were incubated for additional 4 h. The crystals of MTT-formazan were dissolved in 100 μl of DMSO; the absorbance of each well was measured at 490 nm using an automatic ELISA reader system (TECAN, CHE). The IC50 values were calculated using the nonlinear regression fitting models (Graph Pad, Prism Version 5). The data represented the mean of three independent experiments in triplicate and were expressed as means ± SD. The IC50 value was […]
(§13) defined as the concentration at which 50% of the cells could survive. […]

HDAC1 = HDAC1 (Homo sapiens, UniProt Q13547); assay: In vitro HDAC1 inhibitory assay; assay type: biochemical
in vitro = settings: human
[4] = system: MCF-7 (human breast cancer cell line); assay: MTT anti-proliferative assay, MCF-7; assay type: cell-based; settings: MCF7, MCF-7, mean of at least three experiments, read-out: Cytotoxicity IC50 MCF-7
Method: as §5, §6, §7, §8, §9, §10, §11, §12, §13

caspase-3 = assay: qRT-PCR caspase-3 level; assay type: cell-based, human; settings: HCT-116 cells, 72 h, versus untreated cells
Method: as §14, §15, §16, §17, §18, §19
expressions using qRT-PCR:
as §20, §21, §22, §23, §24, §25, §26, §27, §28, §29

[5] = system: HepG2 (human liver carcinoma cell line); assay: MTT anti-proliferative assay, HepG2; assay type: cell-based; settings: HepG2, mean of at least three experiments, read-out: Cytotoxicity IC50 HepG-2
Method: as §5, §6, §7, §8, §9, §10, §11, §12, §13

Sequence of HDAC1 (Q13547 whole entry): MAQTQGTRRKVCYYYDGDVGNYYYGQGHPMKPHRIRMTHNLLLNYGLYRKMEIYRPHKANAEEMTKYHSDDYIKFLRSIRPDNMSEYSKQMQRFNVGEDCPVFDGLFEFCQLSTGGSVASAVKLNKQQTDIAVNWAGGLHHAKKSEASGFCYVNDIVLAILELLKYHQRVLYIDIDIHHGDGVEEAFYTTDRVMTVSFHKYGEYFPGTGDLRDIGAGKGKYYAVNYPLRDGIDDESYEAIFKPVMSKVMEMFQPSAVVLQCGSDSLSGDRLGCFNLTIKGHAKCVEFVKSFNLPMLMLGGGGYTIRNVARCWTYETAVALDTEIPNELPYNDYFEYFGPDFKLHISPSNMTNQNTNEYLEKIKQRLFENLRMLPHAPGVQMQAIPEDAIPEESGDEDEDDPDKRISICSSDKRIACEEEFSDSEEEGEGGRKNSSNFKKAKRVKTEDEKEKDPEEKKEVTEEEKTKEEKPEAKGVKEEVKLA
Sequence of HDAC4 (P56524 whole entry): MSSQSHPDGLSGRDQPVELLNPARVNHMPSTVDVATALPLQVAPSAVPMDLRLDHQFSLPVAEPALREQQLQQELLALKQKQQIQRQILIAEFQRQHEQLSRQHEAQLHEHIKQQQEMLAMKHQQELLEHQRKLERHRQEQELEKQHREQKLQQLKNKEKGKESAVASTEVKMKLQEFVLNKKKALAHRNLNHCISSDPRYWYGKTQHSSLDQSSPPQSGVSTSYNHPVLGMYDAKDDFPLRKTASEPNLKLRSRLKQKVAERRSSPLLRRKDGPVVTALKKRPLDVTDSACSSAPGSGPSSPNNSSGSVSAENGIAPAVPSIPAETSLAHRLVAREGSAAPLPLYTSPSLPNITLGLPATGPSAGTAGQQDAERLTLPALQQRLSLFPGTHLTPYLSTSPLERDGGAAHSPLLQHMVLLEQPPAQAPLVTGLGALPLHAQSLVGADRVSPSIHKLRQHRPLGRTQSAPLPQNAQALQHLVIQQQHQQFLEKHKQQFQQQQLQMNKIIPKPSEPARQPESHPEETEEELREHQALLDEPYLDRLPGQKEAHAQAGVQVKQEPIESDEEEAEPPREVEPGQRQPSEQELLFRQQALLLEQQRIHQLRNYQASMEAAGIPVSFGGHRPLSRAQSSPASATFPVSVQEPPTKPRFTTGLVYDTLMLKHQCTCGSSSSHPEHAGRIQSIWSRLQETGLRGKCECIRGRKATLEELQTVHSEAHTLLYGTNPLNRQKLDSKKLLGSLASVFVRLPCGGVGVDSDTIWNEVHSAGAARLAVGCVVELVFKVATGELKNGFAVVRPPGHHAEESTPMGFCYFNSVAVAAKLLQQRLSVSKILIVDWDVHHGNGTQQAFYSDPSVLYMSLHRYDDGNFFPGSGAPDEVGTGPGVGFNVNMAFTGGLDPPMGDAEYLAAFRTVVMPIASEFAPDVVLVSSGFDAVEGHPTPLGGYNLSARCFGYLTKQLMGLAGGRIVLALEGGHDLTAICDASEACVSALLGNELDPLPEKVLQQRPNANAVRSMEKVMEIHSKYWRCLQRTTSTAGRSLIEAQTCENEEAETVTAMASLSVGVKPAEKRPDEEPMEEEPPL

IC50 (HDAC4): 6.14 µM
IC50 (HDAC1): 0.108 µM
IC50 (in vitro): 65.7 ± 1.7 µM
melting point: 257 to 258 °C
SMILES: CCCn1c(N)c(C(c2ccc(Cl)cc2)c2c(N)n(CCC)c(=O)[nH]c2=O)c(=O)[nH]c1=O [Compound 5m, 5,5′-((4-Chlorophenyl)methylene)bis(6-amino-1-propylpyrimidine-2,4(1H,3H)-dione)]
Apoptotic effect, times/fold compared to control cells (HCT-116 cells [1]; 37.59% versus 2.17% in control): ~17
DNA Content (%) Early (early apoptosis) (HCT-116 cells [1]; Annexin-V/PI): 22.36%
DNA Content (%) Late (late apoptosis) (HCT-116 cells [1]; Annexin-V/PI): 13.14%
DNA Content (%) Total (apoptotic effect) (HCT-116 cells [1]; Annexin-V/PI): 37.59%
Necrosis (HCT-116 cells [1]; Annexin-V/PI): 2.09
RT-PCR (Fold Change) Caspase-8 (caspase-8): 2.5 Fold Change and 2.655 Fold Change
%G0–G1 (HCT-116 cells [2]): 55.31%
%G2/M (HCT-116 cells [2]): 9.81%
%S (HCT-116 cells [2]): 34.88%
IC50 [3]: 78 ± 2 µM
IC50 [4]: 52 ± 3.5 µM
RT-PCR (Fold Change) Caspase-3 (caspase-3): 5 Fold Change and 4.891 Fold Change
IC50 [5]: 3.3 ± 0.56 µM
